# Reference: patent publication US20230339878A1, “SLC26A3 INHIBITORS AND USE THEREOF” (THE REGENTS OF THE UNIVERSITY OF CALIFORNIA, priority 2018, published 2023)
# Entries after “also recorded” stand apart in the source; their conditions may differ.
# How the values were obtained:
# slc26a3 = biological target: T1, slc26a3 (Mus musculus, UniProt Q9WVC8); experiment: slc26a3-mediated Cl-/SCN- exchange; type: cell-based, murine; settings: read-out: IC50 for inhibition of slc26a3-mediated Cl-/SCN- exchange
# T1 construct: host or cells: Fischer rat thyroid (FRT) cells expressing YFP, clonal line FRT-YFP-slc26a3
# T1 sequence (Q9WVC8 1-757): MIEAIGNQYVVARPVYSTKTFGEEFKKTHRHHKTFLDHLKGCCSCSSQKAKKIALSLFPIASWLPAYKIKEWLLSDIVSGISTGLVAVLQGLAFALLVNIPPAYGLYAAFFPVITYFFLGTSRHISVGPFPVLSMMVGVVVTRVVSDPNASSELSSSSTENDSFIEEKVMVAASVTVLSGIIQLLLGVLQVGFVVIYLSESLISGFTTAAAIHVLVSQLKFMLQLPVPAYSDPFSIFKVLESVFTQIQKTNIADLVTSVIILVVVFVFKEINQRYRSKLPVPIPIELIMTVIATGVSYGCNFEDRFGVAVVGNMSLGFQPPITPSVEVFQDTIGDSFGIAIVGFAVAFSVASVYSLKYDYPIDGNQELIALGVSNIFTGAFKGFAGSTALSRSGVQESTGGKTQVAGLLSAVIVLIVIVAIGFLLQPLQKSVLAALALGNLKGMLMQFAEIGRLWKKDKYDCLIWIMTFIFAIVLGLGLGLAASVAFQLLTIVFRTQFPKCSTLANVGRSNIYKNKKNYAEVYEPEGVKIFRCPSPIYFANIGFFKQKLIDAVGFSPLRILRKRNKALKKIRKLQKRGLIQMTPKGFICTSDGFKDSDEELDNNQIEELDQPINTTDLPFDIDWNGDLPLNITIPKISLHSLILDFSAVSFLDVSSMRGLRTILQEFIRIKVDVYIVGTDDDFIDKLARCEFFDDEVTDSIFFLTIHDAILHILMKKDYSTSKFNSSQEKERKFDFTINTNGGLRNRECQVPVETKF
# Procedure: Concentration-dependence measurements for inhibition of slc26a3-mediated exchange of Cl^- and HCO3^-, the physiologically relevant activity of slc26a3, was measured using slc26a3-expressing FRT cells labeled with BCECF as a cytoplasmic pH sensor. Labeled cells were initially incubated in a Cl^--containing HCO3^- buffered solution, and HCO3^- influx / Cl^- efflux with cytoplasmic alkalinization was produced by addition of a gluconate-containing HCO3^- buffered solution. […] Concentration-dependence measurements for inhibition of slc26a3-mediated Cl^-/SCN^- exchange gave an IC50 of ~0.3 µM (FIG. 4B).
# [1] = test system: mouse distal colonic closed loops; experiment: Closed distal colonic loop fluid absorption in mice; type: in vivo; settings: 10 µM intraluminal, 60 min
# Procedure: Female CD1 mice (age 8-10 weeks) were given free access to Pedialyte (per liter: Na^+ 45 mEq, Cl^- 35 mEq, K^+ 20 mEq, dextrose 25 g; Abbott, Abbot Park, IL) but not solid food for 48 h before experiments. Mice were treated with 500 µL mineral oil once a day rectally (last dose 12 h before surgeries) during this period to evacuate the colon. Closed intestinal loops were isolated as described. Mice were anesthetized with isoflurane and body temperature was maintained during surgery at 36-38° C. using a heating pad. A small abdominal incision was made to expose the distal colon, and one closed distal colonic loop (length 1.5-2 cm) was isolated with sutures in each mouse. Loops were injected with 100 µL phosphate-buffered saline (PBS, pH: 7.4, in mM: 137 NaCl, 2.7 KCl, 8 Na2HPO4, 1.8 KH2PO4, 1 CaCl2, 0.5 MgCl2) without and with 10 µM Compound A1 and/or 10 µM tenapanor (MedChemExpress, Monmouth Junction, NJ). The abdominal incision was closed with sutures, and mice were allowed to recover from anesthesia. Colonic loops were removed at 0 and 60 min (in separate mice) and loop length and weight were measured to quantify fluid absorption. Luminal fluid was emptied with a syringe and pH was measured immediately using AB15 pH Meter (Thermo Fisher Scientific, South San Francisco, CA). In separate studies, mid-jejunal loops (length 2-3 cm, 3-4 loops per mouse) were isolated as described above, injected with 100 µL PBS without or with 10 µM Compound A1 and/or 10 µM tenapanor, and excised at 0 and 30 min to measure loop length and weight.
# Closed intestinal loop studies in mice were done to study effects of Compound A1 on fluid absorption. […] Changes in luminal pH were also determined as a semi-quantitative measure of slc26a3-facilitated HCO3^- secretion / C1^- absorption, with slc26a3 inhibition predicted to reduce luminal fluid alkalinization. For these experiments, a phosphate-buffered solution (PBS) without HCO3^- / CO2 was used to avoid confounding effects of luminal carbonic anhydrases. […] Administration of the NHE3 (Na^+/H^+ exchanger 3) inhibitor tenapanor had no effect on weight/length ratio or luminal pH in distal colonic loops.
# murine slc26a3 = biological target: T2, murine slc26a3 (Mus musculus, UniProt Q9WVC8); experiment: slc26a3-mediated Cl-/I- exchange, YFP fluorescence quenching in FRT-YFP-slc26a3 cells; type: cell-based
# T2 construct: host or cells: Fischer rat thyroid (FRT) cells expressing YFP, clonal line FRT-YFP-slc26a3
# T2 sequence (Q9WVC8 1-757): T1 sequence (Q9WVC8 1-757)
smiles,measurement,setting,value
Cc1c(CC(=O)O)c(=O)oc2c(C)c(OCc3cccc(Br)c3)ccc12 [Compound A1],IC50,slc26a3,~300 nM
same,"loop weight/length ratio (fluid absorption), distal colonic loops",[1],completely prevented the reduction in loop weight/length ratio; also recorded: blocked fluid absorption in closed colonic loops; also recorded: inhibits intestinal fluid absorption in mouse distal colon
same,"luminal pH, distal colonic loops",[1],reduced alkalinization of luminal fluid
same,t½ for inhibition,"murine slc26a3; 1 µM, incubation for different times prior to Cl-/I- exchange",~ 30 s
same,IC50,"murine slc26a3; summary over three anion exchange modes, read-out: IC50 for slc26a3-mediated Cl- exchange with HCO3-, I- and SCN-",~200 nM
